Results on 16 compounds are retold here after patent US20220388953A1, “COMPOUNDS WITH ANTIMICROBIAL ACTIVITY” (The Hong Kong Polytechnic University, priority 2018, published 2022).

As a reminder, the melting point is the temperature of the solid-liquid transition. In turn, `Nc1ccccc1Sc1ccc(C(=O)Nc2ccccc2C(=O)O)cc1[N+](=O)[O-]` [C3-057, 2-(4-((2-Aminophenyl)thio)-3-nitrobenzamido)benzoic Acid] displayed a melting point of 259 to 261 °C.

As for `O=C(O)c1ccc(F)c(NCc2ccc(Sc3ccc(Cl)c(Cl)c3)c([N+](=O)[O-])c2)c1` [C3-082, 3-((4-((3,4-Dichlorophenyl)thio)-3-nitrobenzyl)amino)-4-fluorobenzoic Acid], the melting point fell in the range of 237 to 239 °C.

`Nc1ccccc1Sc1ccc(C(=O)Nc2cccc(C(=O)O)c2)cc1[N+](=O)[O-]` [C3-026, 3-(4-((2-Aminophenyl)thio)-3-nitrobenzamido)benzoic Acid] registered a melting point of 251 to 252 °C.

`NC(=O)c1cccc(NCc2ccc(Sc3ccc(Cl)c(Cl)c3)c([N+](=O)[O-])c2)c1` [C3-066, 3-((4-((3,4-Dichlorophenyl)thio)-3-nitrobenzyl)amino)benzamide] gave a melting point of 158 to 160 °C.

`O=C(O)c1ccc(Cl)c(NCc2ccc(Sc3ccc(Cl)c(Cl)c3)c([N+](=O)[O-])c2)c1` [C3-071, 4-Chloro-3-((4-((3,4-dichlorophenyl)thio)-3-nitrobenzyl)amino)benzoic Acid] showed a melting point of 196 to 198 °C.

The compound `O=C(Nc1ccccc1C(=O)O)c1ccc(Sc2ccc(Cl)c(Cl)c2)c([N+](=O)[O-])c1` [C3-077, 2-(4-((3,4-Dichlorophenyl)thio)-3-nitrobenzamido)benzoic Acid] had a melting point of 279 to 281 °C.

Regarding `Nc1ccccc1Sc1ccc(CNc2cccc(C(=O)O)c2)cc1[N+](=O)[O-]` [C3-027, 3-((4-((2-Aminophenyl)thio)-3-nitrobenzyl)amino)benzoic Acid], the melting point is 105 to 107 °C.

Turning to `O=C(O)c1ccc(Cl)cc1NCc1ccc(Sc2ccc(Cl)c(Cl)c2)c([N+](=O)[O-])c1` [C3-087, 4-Chloro-2-((4-((3,4-dichlorophenyl)thio)-3-nitrobenzyl)amino)benzoic Acid], the melting point is 220 to 222 °C.

`O=C(O)c1ccccc1C(=O)c1ccc(Nc2cccc(Cl)c2)c([N+](=O)[O-])c1`: the melting point is 159 to 161 °C.

In the case of `O=C(O)c1ccccc1C(=O)c1ccc(Sc2ccc(Cl)c(Cl)c2)cc1` [C3-083, 2-(4-((3,4-Dichlorophenyl)thio)benzoyl)benzoic Acid], the melting point is 164 to 166 °C.

As for `O=C(O)c1ccccc1NCc1ccc(Sc2ccc(Cl)c(Cl)c2)c([N+](=O)[O-])c1` [C3-081, 2-((4-((3,4-Dichlorophenyl)thio)-3-nitrobenzyl)amino)benzoic Acid], the melting point was 171 to 173 °C.

For the compound `O=C(O)c1ccc(N2CCOCC2)c(NCc2ccc(Sc3ccc(Cl)c(Cl)c3)c([N+](=O)[O-])c2)c1` [C3-073, 3-((4-((3,4-Dichlorophenyl)thio)-3-nitrobenzyl)amino)-4-morpholinobenzoic Acid], the melting point lay in the range of 147 to 149 °C.

`Nc1ccccc1Sc1ccc(C(=O)Nc2ccc(C(=O)O)cc2)cc1[N+](=O)[O-]` [C3-056, 4-(4-((2-Aminophenyl)thio)-3-nitrobenzamido)benzoic Acid] displayed a melting point of 247 to 249 °C.

As for `O=C(O)c1ccc(Br)c(NCc2ccc(Sc3ccc(Cl)c(Cl)c3)c([N+](=O)[O-])c2)c1` [C3-078, 4-Bromo-3-((4-((3,4-dichlorophenyl)thio)-3-nitrobenzyl)amino)benzoic Acid], the melting point fell in the range of 231 to 233 °C.

As for `Nc1ccccc1Sc1ccc(CNc2ccccc2C(=O)O)cc1[N+](=O)[O-]` [C3-065, 2-((4-((2-Aminophenyl)thio)-3-nitrobenzyl)amino)benzoic Acid], the melting point was 201 to 203 °C.

Regarding `O=[N+]([O-])c1cc(CNc2cccc(CO)c2)ccc1Sc1ccc(Cl)c(Cl)c1` [C3-080, (3-((4-((3,4-Dichlorophenyl)thio)-3-nitrobenzyl)amino)phenyl)methanol], the melting point lay within 118 to 120 °C.
